Results published in US6586468B1, “ω-substituted phenyl-prostaglandin E derivatives and drugs containing the same as the active ingredient” (Ono Pharmaceutical Co., Ltd., priority 1998, dated 2003).

How the values were obtained:
[1] = target: T1, EP4 (Mus musculus, UniProt P32240); experiment: Binding assay using expression CHO cell of prostanoid receptor subtype, [3H]-PGE2 binding inhibition (EP4); details: membrane fraction of CHO cells expressing mouse EP4; [3H]-PGE2 2.5 nM; Ki=IC50/(1+([C]/Kd)); read-out: Dissociation Constant Ki (μM) EP4
T1 construct: expressed in transfected cells; host or cells: CHO cells (membrane fraction)
T1 sequence (P32240 whole entry): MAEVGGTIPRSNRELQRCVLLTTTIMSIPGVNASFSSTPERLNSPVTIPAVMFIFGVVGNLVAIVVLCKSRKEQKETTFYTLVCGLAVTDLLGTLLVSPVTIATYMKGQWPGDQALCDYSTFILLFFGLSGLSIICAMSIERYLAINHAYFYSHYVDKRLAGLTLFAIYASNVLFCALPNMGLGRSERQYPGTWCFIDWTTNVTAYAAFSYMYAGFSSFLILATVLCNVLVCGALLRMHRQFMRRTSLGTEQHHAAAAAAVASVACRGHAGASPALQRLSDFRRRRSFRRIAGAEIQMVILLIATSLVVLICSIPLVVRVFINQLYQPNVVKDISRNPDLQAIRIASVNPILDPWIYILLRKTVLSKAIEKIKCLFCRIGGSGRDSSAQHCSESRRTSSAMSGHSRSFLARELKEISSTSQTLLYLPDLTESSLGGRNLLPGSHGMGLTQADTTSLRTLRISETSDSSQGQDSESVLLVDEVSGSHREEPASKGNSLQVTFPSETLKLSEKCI
Experimental: (§1) (i) Binding assay using Expression cell of prostanoids receptor subtype
(§2) The preparation of membrane fraction was carried out according to the method of Sugimoto et al. [J. Biol. Chem., 267, 6463-6466 (1992)], using expression CHO cell of the prostanoids receptor subtype (mouse EP1, EP2, EP3α, EP4 and human IP).
(§3) The standard assay mixture containing membrane fraction (0.5 mg/ml) and [^3H]-PGE2 in a final volume of 200 μl was incubated for 1 hour at room temperature. The reaction was terminated by addition of ice-cooled buffer (3 ml). The mixture was filtered through a GF/B glass filter under reduced pressure. The radioactivity associated with the filter was measured by liquid scintillation counting.
(§4) Kd and Bmax values were determined from Scatchard plots [Ann. N. Y. Acad. Sci., 51, 660 (1949)]. Non-specific binding was calculated as the binding in the presence of an excess (2.5 μM) of unlabeled PGE2. In the measurement of ^3H-PGE2 binding inhibitory activity, [3H]-PGE2 (2.5 nM) and various concentrations of the compounds of the present invention were added. The following buffer was used in all reactions.
(§5) Buffer; 10 mM potassium phosphate (pH 6.0), 1 mM EDTA, 10 mM MgCl2, 0.1 M NaCl.
(§6) The dissociation constant Ki (μM) of each compound was calculated by the following equation.

[2] = target: T2, EP3α (Mus musculus, UniProt P30557); experiment: Binding assay using expression CHO cell of prostanoid receptor subtype, [3H]-PGE2 binding inhibition (EP3α); details: membrane fraction of CHO cells expressing mouse EP3α; [3H]-PGE2 2.5 nM; Ki=IC50/(1+([C]/Kd)); read-out: Dissociation Constant Ki (μM) EP3α
T2 construct: expressed in transfected cells; host or cells: CHO cells (membrane fraction)
T2 sequence (P30557 1-365): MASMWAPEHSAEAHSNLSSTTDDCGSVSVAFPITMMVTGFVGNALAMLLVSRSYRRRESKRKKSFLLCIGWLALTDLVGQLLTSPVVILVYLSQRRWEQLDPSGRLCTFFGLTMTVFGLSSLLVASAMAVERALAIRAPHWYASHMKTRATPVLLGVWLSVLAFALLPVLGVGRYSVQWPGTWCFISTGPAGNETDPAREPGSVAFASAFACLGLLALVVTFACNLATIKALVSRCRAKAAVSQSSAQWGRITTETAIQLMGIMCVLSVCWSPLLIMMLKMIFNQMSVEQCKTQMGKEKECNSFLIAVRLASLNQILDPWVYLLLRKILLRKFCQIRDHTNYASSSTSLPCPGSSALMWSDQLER
Experimental: as §1, §2, §3, §4, §5, §6

Compound | Ki [1] [µM] | Ki [2] [µM]
Cc1ccc(C[C@H](O)/C=C/[C@H]2[C@H](O)CC(=O)[C@@H]2C/C=C\CCCC(=O)O)cc1 [reference compound] | 0.032 | 0.011
COCc1cc(CC(O)/C=C/[C@@H]2[C@@H](C/C=C\CCCC(=O)O)[C@H](Cl)C[C@H]2O)ccc1O (stereo partly drawn) [Example 4, (9β,11α,15ξ)-9-Chloro-11,15-dihydroxy-16-(3-methoxymethyl-4-hydroxyphenyl)-17,18,19,20-tetranorprost-5Z,13E-dienoic Acid] | 0.0036 | 3.2
CCOCc1cccc(C[C@H](O)/C=C/[C@H]2[C@H](O)CC(=O)[C@@H]2C/C=C\CCCC(=O)O)c1 [2 (11), (11α,15α)-9-oxo-11,15-Dihydroxy-16-(3-ethoxymethylphenyl)-17,18,19,20-tetranorprost-5Z,13E-dienoic Acid] | 0.01 | 0.54
Cc1cc(C[C@H](O)/C=C/[C@H]2[C@H](O)CC(=O)[C@@H]2CCCCCCC(=O)O)ccc1O [2 (4), (11α,15α)-9-oxo-11,15-dihydroxy-16-(3-methyl-4-hydroxyphenyl)-17,18,19,20-tetranorprost-13E-enoic Acid] | 0.003 | > 10
CCCOCc1cccc(CC(O)/C=C/[C@@H]2[C@@H](C/C=C\CCCC(=O)O)[C@H](F)C[C@H]2O)c1 (stereo partly drawn) [4 (12), (9β,11α,15ξ)-9-Fluoro-11,15-dihydroxy-16-(3-propyloxymethylphenyl)-17,18,19,20-tetranorprost-5Z,13E-dienoic Acid] | 0.0059 | 0.35
COCc1cccc(C[C@H](O)/C=C/[C@H]2[C@H](O)CC(=O)[C@@H]2CCCCCCC(=O)O)c1 [Example 2, (11α,15α)-9-oxo-11,15-Dihydroxy-16-(3-methoxymethylphenyl)-17,18,19,20-tetranorprost-13E-enoic Acid] | 0.006 | 0.82
CCOCc1cccc(CC(O)/C=C/[C@H]2[C@H](O)CC(=O)[C@@H]2CCc2ccc(C(=O)O)cc2)c1 (stereo partly drawn) [5 (12), (11α,15α)-9-oxo-11,15-Dihydroxy-16-(3-ethoxymethylphenyl)-1,6-(1,4-phenylene)-2,3,4,5,17,18,19,20-octanorprost-13E-enoic Acid] | 0.008 | 6
O=C(O)CCCCCC[C@H]1C(=O)C[C@@H](O)[C@@H]1/C=C/[C@@H](O)Cc1cccc(CCF)c1 [2 (1), (11α,15α)-9-oxo-11,15-Dihydroxy-16-[3-(2-fluoroethyl)phenyl]-17,18,19,20-tetranorprost-13E-enoic Acid] | 0.0016 | 0.12
COc1ccc(C[C@H](O)/C=C/[C@H]2[C@H](O)CC(=O)[C@@H]2C/C=C\CCCC(=O)O)cc1 [reference compound] | 0.067 | 0.048
CCOCc1cccc(C[C@H](O)/C=C/[C@@H]2[C@@H](C/C=C\CCCC(=O)O)[C@H](Cl)C[C@H]2O)c1 [8 (6), (9β,11α,15α)-9-Chloro-11,15-dihydroxy-16-(3-ethoxymethylphenyl)-17,18,19,20-tetranorprost-5Z,13E-dienoic Acid] | 0.0015 | 0.04
COCc1cccc(C[C@H](O)/C=C/[C@H]2CCC(=O)[C@@H]2C/C=C\CCCC(=O)O)c1 [2 (15), (15α)-9-oxo-15-Hydroxy-16-(3-methoxymethylphenyl)-17,18,19,20-tetranorprost-5Z,13E-dienoic Acid] | 0.0026 | 1.4
